Reference: patent publication US7563921B2, “2-cyano-3(halo)alkoxy-benzenesulfonamide compounds for combating animal pests” (BASF Aktiengesellschaft, priority 2004, dated 2009)

Assays:
[1] = system: Cotton Aphid (Aphis gossypii); experiment: Cotton Aphid cotyledon dip test on cotton plants; type: in vivo; conditions: 120 h, cotton cotyledons dipped, mortality counts after 5 days, read-out: mortality in comparison with untreated controls
Text: Cotton Aphid (Aphis gossypii)
(§1) The active compounds were formulated in 50:50 acetone:water and 100 ppm Kinetic® surfactant.
Cotton plants in the cotyledon stage (variety ‘Delta Pine’, one plant per pot) were infested by placing a heavily infested leaf from the main colony on top of each cotyledons. The aphids were allowed to transfer to the host plant overnight, and the leaf used to transfer the aphids was removed. The cotyledons were dipped in the test solution and allowed to dry. After 5 days, mortality counts were made.

Bean Aphid (Aphis fabae) = experiment: Bean Aphid plant dip test on nasturtium plants; type: in vivo; conditions: 72 h, nasturtium plants dipped, aphid mortality after 3 days, read-out: mortality in comparison with untreated controls
Text: as §1
Nasturtium plants grown in Metro mix in the 1st leaf-pair stage (variety ‘Mixed Jewel’) were infested with approximately 20-30 laboratory-reared aphids by placing infested cut plants on top of the test plants. The cut plants were removed after 24 hr. Each plant was dipped into the test solution to provide complete coverage of the foliage, stem, protruding seed surface and surrounding cube surface and allowed to dry in the fume hood. The treated plants were kept at about 25° C. with continuous fluorescent light. Aphid mortality is determined after 3 days.

[2] = system: cotton aphids (Aphis gossypil); experiment: Cotton seed treatment, control of foliar aphids; type: in vivo, Aphis gossypii; conditions: live aphids counted four days after infestation, versus solvent blank controls
Experimental: Experimental compound no. 1 (N,N-Dimethyl-2-cyano-3-difluoromethoxyphenylsulfonamide) was evaluated to determine their insecticidal efficacy for control of foliar aphids when applied as seed treatment.
Experimental compound no. 1 was formulated by dissolving 10.5 mg technical material in 45 μl acetone then adding 255 μl 0.05% aqueous TWEEN 20 (polyoxyethylene (20) sorbitan monolaurate).
Twenty-five cotton seeds (variety Sure-Grow 747) were placed in a 20-ml glass vial and then 150 μl of the compound formulation were pipetted onto the side of the vial just above the seeds. Vials were vortexed for 30 seconds to rapidly spin the seeds within the vial to apply the compound to the seeds. Treated seeds were then air-dried. […]
Twenty-four cotton seeds were planted in Metro Mix potting mix in twelve 7.6-cm-square pots, 2 seeds per pot. Crop selectivity was determined by comparing seedling emergence and recording any foliar and shoot symptoms.
Seedling plants were thinned to one plant per pot. […] The exact number of aphids transferred to each plant was recorded.
Four days after infestation, live aphids on each plant were counted. The aphid population increase for each control plant was calculated by dividing the final aphid population by the initial population. The median aphid population increase on the solvent blank controls was then calculated. […]

[3] = system: Green Peach Aphid (Myzus persicae); experiment: Green Peach Aphid foliar dip test on pepper plants; type: in vivo; conditions: 120 h, pepper plant leaves dipped, aphid mortality after 5 days, read-out: mortality in comparison with untreated controls
Text: Green Peach Aphid (Myzus persicae)
as §1
Pepper plants in the 2nd leaf-pair stage (variety ‘California Wonder’) were infested with approximately 40 laboratory-reared aphids by placing infested leaf sections on top of the test plants. The leaf sections were removed after 24 hr. The leaves of the intact plants were dipped into gradient solutions of the test compound and allowed to dry. Test plants were maintained under fluorescent light (24 hour photoperiod) at about 25° C. and 20-40% relative humidity. Aphid mortality on the treated plants, relative to mortality on check plants, was determined after 5 days.

| Compound | mortality at 300 ppm [1] [%] | mortality at 300 ppm (Bean Aphid (Aphis fabae)) [%] | reduction of the aphid population [2] | mortality at 300 ppm [3] [%] |
| --- | --- | --- | --- | --- |
| CN(C)S(=O)(=O)c1cccc(OC(F)F)c1C#N [Compound 1, N,N-Dimethyl-2-cyano-3-difluoromethoxyphenylsulfonamide] | > 85 | > 85 | significant reduction of the aphid population | > 85 |
| COc1cccc(S(=O)(=O)N(C)C)c1C#N [Compound 2, N,N-Dimethyl-2-cyano-3-methoxyphenylsulfonamide] | > 85 | > 85 |  | > 85 |
